# Target: human Gal-3 (hGal-3) (Homo sapiens (Human), UniProt P17931)
# Assay: competitive binding assay: binding of biotinylated hGal-3 to microplate-adsorbed asialofetuin (ASF), spectrophotometric
# Details: Activity on hGal-3; mean values of several measurements
# How it was run: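 Compounds in DMSO dilution series competed with 300-1000 ng/mL biotinylated hGal-3 for asialofetuin adsorbed on the plate (3 h, 4° C). Streptavidin-peroxidase at 80 ng/mL (1 h, 4° C) with ABTS gave a spectrophotometric read-out, and IC50 was reported as the mean of repeat runs.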
# human Gal-3 (hGal-3), sequence (P17931 whole entry): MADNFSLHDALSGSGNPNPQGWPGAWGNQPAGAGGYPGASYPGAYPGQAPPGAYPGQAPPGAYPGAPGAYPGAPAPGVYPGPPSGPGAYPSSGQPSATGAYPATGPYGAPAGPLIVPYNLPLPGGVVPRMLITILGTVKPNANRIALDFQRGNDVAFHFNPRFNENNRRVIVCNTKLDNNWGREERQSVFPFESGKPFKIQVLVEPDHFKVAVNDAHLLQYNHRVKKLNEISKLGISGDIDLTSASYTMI
row,IC50 [nM],Compound
1,23,"CC(=O)O[C@@H]1[C@@H](n2cc(-c3cc(F)c(F)c(F)c3)nn2)[C@@H](O)[C@@H](CO)O[C@H]1C(=O)N(c1cc(Cl)cc(Cl)c1)[C@H]1CCC[C@@H]1O [Example 1A.1.2, (2R,3R,4S,5R,6R)-2-((3,5-dichlorophenyl)((1S,2S)-2-hydroxycyclopentyl)carbamoyl)-5-hydroxy-6-(hydroxymethyl)-4-(4-(3,4,5-trifluorophenyl)-1H-1,2,3-triazol-1-yl)tetrahydro-2H-pyran-3-yl acetate]"
2,401,"CO[C@@H]1[C@@H](n2cc(-c3ccc(Cl)c(Cl)c3)nn2)[C@@H](O)[C@@H](CO)O[C@H]1C(=O)N(c1cc(Cl)cc(C#N)c1)[C@@H]1CC[C@H]1O [Example 2.8.4R, (2R,3R,4S,5R,6R)-N-(3-chloro-5-cyanophenyl)-4-(4-(3,4-dichlorophenyl)-1H-1,2,3-triazol-1-yl)-5-hydroxy-N-((1R,2R)-2-hydroxycyclobutyl)-6-(hydroxymethyl)-3-methoxytetrahydro-2H-pyran-2-carboxamide]"
3,42.4,"CO[C@@H]1[C@@H](n2cc(-c3cc(F)c(F)c(F)c3)nn2)[C@@H](O)[C@@H](CO)O[C@H]1C(=O)N(c1cccc(I)c1)[C@H]1CCC[C@@H]1O [Example 1.1.6, (2R,3R,4S,5R,6R)-5-hydroxy-N-((1S,2S)-2-hydroxycyclopentyl)-6-(hydroxymethyl)-N-(3-iodophenyl)-3-methoxy-4-(4-(3,4,5-trifluorophenyl)-1H-1,2,3-triazol-1-yl)tetrahydro-2H-pyran-2-carboxamide]"
4,80.6,"CC(=O)O[C@@H]1[C@@H](n2cc(-c3cc(F)c(F)c(F)c3)nn2)[C@@H](O)[C@@H](CO)O[C@H]1C(=O)N(c1cc(Cl)cc(C#N)c1)[C@@H]1CC[C@H]1O [Example 2A.1.4R, (2R,3R,4S,5R,6R)-2-((3-chloro-5-cyanophenyl)((1R,2R)-2-hydroxycyclobutyl)carbamoyl)-5-hydroxy-6-(hydroxymethyl)-4-(4-(3,4,5-trifluorophenyl)-1H-1,2,3-triazol-1-yl)tetrahydro-2H-pyran-3-yl acetate]"
5,58.3,"CO[C@@H]1[C@@H](n2cc(-c3cc(F)cc(Br)c3)nn2)[C@@H](O)[C@@H](CO)O[C@H]1C(=O)N(c1cc(Cl)cc(C#N)c1)[C@H]1CCC[C@@H]1O [Example 1.10.4, (2R,3R,4S,5R,6R)-4-(4-(3-bromo-5-fluorophenyl)-1H-1,2,3-triazol-1-yl)-N-(3-chloro-5-cyanophenyl)-5-hydroxy-N-((1S,2S)-2-hydroxycyclopentyl)-6-(hydroxymethyl)-3-methoxytetrahydro-2H-pyran-2-carboxamide]"
6,146,"CO[C@@H]1[C@@H](n2cc(-c3cc(F)cc(F)c3)nn2)[C@@H](O)[C@@H](CO)O[C@H]1C(=O)N(c1cc(Br)cc(C#N)c1)[C@H]1CCC[C@@H]1O [Example 1.2.5, (2R,3R,4S,5R,6R)-N-(3-bromo-5-cyanophenyl)-4-(4-(3,5-difluorophenyl)-1H-1,2,3-triazol-1-yl)-5-hydroxy-N-((1S,2S)-2-hydroxycyclopentyl)-6-(hydroxymethyl)-3-methoxytetrahydro-2H-pyran-2-carboxamide]"
7,978,"CO[C@@H]1[C@@H](n2cc(-c3ccc(C#N)c(F)c3)nn2)[C@@H](O)[C@@H](CO)O[C@H]1C(=O)N(c1cc(Cl)cc(C#N)c1)[C@@H]1CCC[C@H]1O [Example 1.16.4R, (2R,3R,4S,5R,6R)-N-(3-chloro-5-cyanophenyl)-4-(4-(4-cyano-3-fluorophenyl)-1H-1,2,3-triazol-1-yl)-5-hydroxy-N-((1R,2R)-2-hydroxycyclopentyl)-6-(hydroxymethyl)-3-methoxytetrahydro-2H-pyran-2-carboxamide]"
8,36.5,"CO[C@@H]1[C@@H](n2cc(-c3cc(F)c(F)c(F)c3)nn2)[C@@H](O)[C@@H](CO)O[C@H]1C(=O)N(c1cccc(Cl)c1)[C@H]1CCC[C@@H]1O [Example 1.1.1, (2R,3R,4S,5R,6R)—N-(3-chlorophenyl)-5-hydroxy-N-((1S,2S)-2-hydroxycyclopentyl)-6-(hydroxymethyl)-3-methoxy-4-(4-(3,4,5-trifluorophenyl)-1H-1,2,3-triazol-1-yl)tetrahydro-2H-pyran-2-carboxamide]"
9,167,"CO[C@@H]1[C@@H](n2cc(-c3ccc(C)c(F)c3)nn2)[C@@H](O)[C@@H](CO)O[C@H]1C(=O)N(c1cc(Br)cc(C#N)c1)[C@@H]1CCC[C@H]1O [Example 1.13.5R, (2R,3R,4S,5R,6R)-N-(3-bromo-5-cyanophenyl)-4-(4-(3-fluoro-4-methylphenyl)-1H-1,2,3-triazol-1-yl)-5-hydroxy-N-((1R,2R)-2-hydroxycyclopentyl)-6-(hydroxymethyl)-3-methoxytetrahydro-2H-pyran-2-carboxamide]"
10,89.8,"CO[C@@H]1[C@@H](n2cc(-c3ccc(Cl)c(F)c3F)nn2)[C@@H](O)[C@@H](CO)O[C@H]1C(=O)N(c1cc(Cl)cc(C#N)c1)[C@@H]1CCC[C@H]1O [Example 1.14.4R, (2R,3R,4S,5R,6R)-4-(4-(4-chloro-2,3-difluorophenyl)-1H-1,2,3-triazol-1-yl)-N-(3-chloro-5-cyanophenyl)-5-hydroxy-N-((1R,2R)-2-hydroxycyclopentyl)-6-(hydroxymethyl)-3-methoxytetrahydro-2H-pyran-2-carboxamide]"
11,80,"CO[C@@H]1[C@@H](n2cc(-c3cc(F)c(Br)c(F)c3)nn2)[C@@H](O)[C@@H](CO)O[C@H]1C(=O)N(c1cc(Cl)cc(C#N)c1)[C@H]1CC[C@@H]1O [Example 2.6.4, (2R,3R,4S,5R,6R)-4-(4-(4-bromo-3,5-difluorophenyl)-1H-1,2,3-triazol-1-yl)-N-(3-chloro-5-cyanophenyl)-5-hydroxy-N-((1S,2S)-2-hydroxycyclobutyl)-6-(hydroxymethyl)-3-methoxytetrahydro-2H-pyran-2-carboxamide]"
12,47,"CO[C@@H]1[C@@H](n2cc(-c3cc(F)c(Cl)c(F)c3)nn2)[C@@H](O)[C@@H](CO)O[C@H]1C(=O)N(c1cc(Br)cc(C#N)c1)[C@H]1CC[C@@H]1O [Example 2.5.5, (2R,3R,4S,5R,6R)-N-(3-bromo-5-cyanophenyl)-4-(4-(4-chloro-3,5-difluorophenyl)-1H-1,2,3-triazol-1-yl)-5-hydroxy-N-((1S,2S)-2-hydroxycyclobutyl)-6-(hydroxymethyl)-3-methoxytetrahydro-2H-pyran-2-carboxamide]"
13,220,"CO[C@@H]1[C@@H](n2cc(-c3cc(F)c(F)c(F)c3)nn2)[C@@H](O)[C@@H](CO)O[C@H]1C(=O)N(c1cc(C)cc(Br)c1)[C@@H]1CC[C@H]1O [Example 2.1.12R, (2R,3R,4S,5R,6R)-N-(3-bromo-5-methylphenyl)-5-hydroxy-N-((1R,2R)-2-hydroxycyclobutyl)-6-(hydroxymethyl)-3-methoxy-4-(4-(3,4,5-trifluorophenyl)-1H-1,2,3-triazol-1-yl)tetrahydro-2H-pyran-2-carboxamide]"
14,180,"CO[C@@H]1[C@@H](n2cc(-c3ccc(Br)c(F)c3F)nn2)[C@@H](O)[C@@H](CO)O[C@H]1C(=O)N(c1cc(Cl)cc(Cl)c1)[C@H]1CC[C@@H]1O [Example 2.12.2, (2R,3R,4S,5R,6R)-4-(4-(4-bromo-2,3-difluorophenyl)-1H-1,2,3-triazol-1-yl)-N-(3,5-dichlorophenyl)-5-hydroxy-N-((1S,2S)-2-hydroxycyclobutyl)-6-(hydroxymethyl)-3-methoxytetrahydro-2H-pyran-2-carboxamide]"
15,42.7,"CO[C@@H]1[C@@H](n2cc(-c3ccc(C)c(F)c3F)nn2)[C@@H](O)[C@@H](CO)O[C@H]1C(=O)N(c1cc(Cl)cc(Cl)c1)[C@H]1CC[C@@H]1O [Example 2.11.2, (2R,3R,4S,5R,6R)-N-(3,5-dichlorophenyl)-4-(4-(2,3-difluoro-4-methylphenyl)-1H-1,2,3-triazol-1-yl)-5-hydroxy-N-((1S,2S)-2-hydroxycyclobutyl)-6-(hydroxymethyl)-3-methoxytetrahydro-2H-pyran-2-carboxamide]"
16,183,"CO[C@@H]1[C@@H](n2cc(-c3cc(F)c(Br)c(F)c3)nn2)[C@@H](O)[C@@H](CO)O[C@H]1C(=O)N(c1cc(F)cc(C#N)c1)[C@H]1CC[C@@H]1O [Example 2.6.7, (2R,3R,4S,5R,6R)-4-(4-(4-bromo-3,5-difluorophenyl)-1H-1,2,3-triazol-1-yl)-N-(3-cyano-5-fluorophenyl)-5-hydroxy-N-((1S,2S)-2-hydroxycyclobutyl)-6-(hydroxymethyl)-3-methoxytetrahydro-2H-pyran-2-carboxamide]"
17,118,"CO[C@@H]1[C@@H](n2cc(-c3cc(F)c(F)c(F)c3)nn2)[C@@H](O)[C@@H](CO)O[C@H]1C(=O)N(c1cc(C)cc(Cl)c1)[C@H]1CC[C@@H]1O [Example 2.1.3, (2R,3R,4S,5R,6R)-N-(3-chloro-5-methylphenyl)-5-hydroxy-N-((1S,2S)-2-hydroxycyclobutyl)-6-(hydroxymethyl)-3-methoxy-4-(4-(3,4,5-trifluorophenyl)-1H-1,2,3-triazol-1-yl)tetrahydro-2H-pyran-2-carboxamide]"
18,303,"CO[C@@H]1[C@@H](n2cc(-c3cc(F)c(Br)c(F)c3)nn2)[C@@H](O)[C@@H](CO)O[C@H]1C(=O)N(c1cc(Br)cc(C#N)c1)[C@@H]1CC[C@H]1O [Example 2.6.5R, (2R,3R,4S,5R,6R)-4-(4-(4-bromo-3,5-difluorophenyl)-1H-1,2,3-triazol-1-yl)-N-(3-bromo-5-cyanophenyl)-5-hydroxy-N-((1R,2R)-2-hydroxycyclobutyl)-6-(hydroxymethyl)-3-methoxytetrahydro-2H-pyran-2-carboxamide]"
19,38,"CO[C@@H]1[C@@H](n2cc(-c3cc(F)c(C)c(F)c3)nn2)[C@@H](O)[C@@H](CO)O[C@H]1C(=O)N(c1cc(Cl)cc(Cl)c1)[C@H]1CC[C@@H]1O [Example 2.4.2, (2R,3R,4S,5R,6R)-N-(3,5-dichlorophenyl)-4-(4-(3,5-difluoro-4-methylphenyl)-1H-1,2,3-triazol-1-yl)-5-hydroxy-N-((1S,2S)-2-hydroxycyclobutyl)-6-(hydroxymethyl)-3-methoxytetrahydro-2H-pyran-2-carboxamide]"

# — patent US20230348442A1, “GALECTIN-3 INHIBITING 2-HYDROXYCYCLOALKANE-1-CARBAMOYL DERIVATIVES” (Idorsia Pharmaceuticals Ltd, priority 2020, published 2023)
